# Where a name gives a salt, the structure may show the parent alone. Read-outs that look alike come from different tables or passages of the source.
# Test system: subjects with myelofibrosis
# Settings: for Discontinuation because of adverse event, number of subjects / Discontinued, subjects n (%): Table 1
# [1] = Example 1, patients who started at =680 mg
# [2] = Example 1, started at =680 mg, 24 patients not requiring RBC transfusions at baseline
# [3] = MTD cohort, at least possibly related
# [4] = Table 3: treatment-emergent hematologic toxicity, MTD subjects (N = 40)
# [5] = Table 4: treatment-emergent non-hematologic AE, MTD subjects (N = 40)
# [6] = Table 5: treatment-emergent non-hematologic laboratory finding, MTD subjects (N = 40)
compound,measurement,setting,value
"Cc1cnc(Nc2ccc(OCCN3CCCC3)cc2)nc1Nc1cccc(S(=O)(=O)NC(C)(C)C)c1 [TG101348, N-tert-butyl-3-[(5-methyl-2-{[4-(2-pyrrolidin-1-ylethoxy)phenyl]amino}pyrimidin-4-yl)amino]benzenesulfonamide dihydrochloride monohydrate]",Patients who experienced DLT,800 mg/day,2 of 6
same,Subjects who discontinued treatment during the extension study,Eight of 43 subjects,19%
same,Patients who discontinued treatment,"Example 1, 18 of 59 patients, median follow-up 12 weeks",31%
same,"Asymptomatic hyperlipasemia, patients",[1],33%
same,"Gr1/2 serum creatinine elevation, patients",[1],38%
same,"Gr3 diarrhea, number of patients",[1],3
same,"Gr3 nausea, number of patients",[1],1
same,"Gr3 neutropenia, patients",[1],15%
same,"Gr3 thrombocytopenia, patients",[1],20%
same,"Gr3 vomiting, number of patients",[1],1
same,"Gr4 neutropenia, patients",[1],0%
same,"Gr4 thrombocytopenia, patients",[1],10%
same,"Grade 1/2 transaminitis, patients",[1],38%
same,"Grade 3 anemia, patients",[2],42%
same,"Grade 4 anemia, patients",[2],8%
same,"Grade 3/4 neutropenia, patients",Example 1 background,14%
same,"Grade 3/4 thrombocytopenia, patients",Example 1 background,25%
same,Long-term toxicities,Example 2 conclusions,no long-term toxicities
same,Subjects who discontinued treatment during the first 6 cycles,Fifteen of 59 subjects,25%
same,Reason for discontinuation of study,"MF-TG101348-001, subject 101-040, starting 680, termination 520 mg/day, 24 days, possibly related",Adverse events - diarrhea (grade 3; possibly
same,Reason for discontinuation of study,"MF-TG101348-001, subject 102-019, starting dose 520, dose at termination 520 mg/day, 42 days of treatment, probably related",Adverse event - neutropenia (grade 3;
same,Reason for discontinuation of study,"MF-TG101348-001, subject 104-027, starting 800, termination 680 mg/day, 77 days, possibly related",Adverse event - thrombocytopenia (grade 4;
same,Reason for discontinuation of study,"MF-TG101348-001, subject 104-029, starting 680, termination 680 mg/day, 44 days, not related, also embolic stroke (grade 3; not related)",Adverse event - endocarditis (grade 3; not
same,Reason for discontinuation of study,"MF-TG101348-001, subject 105-059, starting 680, termination 360 mg/day, 27 days, possibly related",Adverse event - cardiac arrest (grade 5;
same,Reason for discontinuation of study,"MF-TG101348-001, subject 106-028, starting 800, termination 520 mg/day, 44 days, possibly related",Adverse event - thrombocytopenia (grade 4;
same,Subjects with serious adverse events considered at least possibly related to TG101348,MF-TG101348-001 and -002,8 subjects
same,Reason for discontinuation of study,"MF-TG101348-002, subject 101-047, starting 680, termination 320 mg/day, cumulative 233 days, possibly related",Adverse event - elevated creatinine (grade 2;
same,Reason for discontinuation of study,"MF-TG101348-002, subject 104-015, starting 360, termination 520 mg/day, cumulative 257 days, possibly related",Adverse event - depression (grade 3;
same,Reason for discontinuation of study,"MF-TG101348-002, subject 104-017, starting 520, termination 200 mg/day, cumulative 309 days",Investigator discretion - disease progression
same,Reason for discontinuation of study,"MF-TG101348-002, subject 105-013, starting 240, termination 360 mg/day, cumulative 321 days, probably related",Adverse event - thrombocytopenia (grade 4;
same,"Grades 3/4 asymptomatic increase in ALT, subjects",MTD cohort,8%
same,"Grades 3/4 asymptomatic increase in AST, subjects",MTD cohort,3%
same,"Grades 3/4 asymptomatic increase in serum lipase, subjects",MTD cohort,15%
same,"Grades 3/4 increase in alkaline phosphatase, subjects",MTD cohort,0%
same,"Grades 3/4 increase in creatinine, subjects",MTD cohort,0%
same,Subjects who required dose-reduction during the first 6 cycles,"MTD cohort (n=40), 28 subjects",70%
same,"Grade 3 diarrhea, subjects",[3],13%
same,"Grade 3 nausea, subjects",[3],5%
same,"Grade 3 vomiting, subjects",[3],3%
same,"Dose-reduction, primary reason ALT elevation","MTD cohort, first 6 cycles",7.5%
same,"Dose-reduction, primary reason amylase/lipase elevation","MTD cohort, first 6 cycles",10%
same,"Dose-reduction, primary reason cytopenia(s)","MTD cohort, first 6 cycles",20%
same,"Dose-reduction, primary reason gastrointestinal adverse events","MTD cohort, first 6 cycles",12.5%
same,"Dose-reduction, primary reason investigator discretion","MTD cohort, first 6 cycles",7.5%
same,"Dose-reduction, primary reason other adverse events","MTD cohort, first 6 cycles",12.5%
same,Maximum tolerated dose (MTD),"Phase I study, myelofibrosis",680 mg
same,"Discontinuation because of adverse event, number of subjects",MTD (40 enrolled),5
same,"Discontinued, subjects n (%)",MTD (initiated at 680 or 800 mg/day; 40 enrolled),11 (28%)
same,"Discontinuation because of adverse event, number of subjects",Overall (59 enrolled),6
same,"Discontinued, subjects n (%)",Overall (59 enrolled),15 (25%)
same,"Anemia: New Transfusion Requirement on Study, subjects n (%)","Table 3: MTD subjects not transfusion dependent at baseline (N = 24), transfusion on at least 2 occasions for Hb <10 g/dL",16 (67%)
same,"Neutropenia Grade 3, subjects n (%)",[4],6 (15%)
same,"Neutropenia Grade 4, subjects n (%)",[4],0
same,"Thrombocytopenia Grade 3, subjects n (%)",[4],8 (20%)
same,"Thrombocytopenia Grade 4, subjects n (%)",[4],5 (13%)
same,"Abdominal pain Grade 1, subjects n (%)",[5],5 (13%)
same,"Abdominal pain Grade 2, subjects n (%)",[5],0
same,"Abdominal pain Grade 3, subjects n (%)",[5],0
same,"Abdominal pain Grade 4, subjects n (%)",[5],0
same,"Anorexia Grade 1, subjects n (%)",[5],7 (18%)
same,"Anorexia Grade 2, subjects n (%)",[5],0
same,"Anorexia Grade 3, subjects n (%)",[5],1 (3%)
same,"Anorexia Grade 4, subjects n (%)",[5],0
same,"Constipation Grade 1, subjects n (%)",[5],6 (15%)
same,"Constipation Grade 2, subjects n (%)",[5],1 (3%)
same,"Constipation Grade 3, subjects n (%)",[5],0
same,"Constipation Grade 4, subjects n (%)",[5],0
same,"Contusion Grade 1, subjects n (%)",[5],5 (13%)
same,"Contusion Grade 2, subjects n (%)",[5],0
same,"Contusion Grade 3, subjects n (%)",[5],0
same,"Contusion Grade 4, subjects n (%)",[5],0
same,"Diarrhea Grade 1, subjects n (%)",[5],21 (53%)
same,"Diarrhea Grade 2, subjects n (%)",[5],4 (10%)
same,"Diarrhea Grade 3, subjects n (%)",[5],5 (13%)
same,"Diarrhea Grade 4, subjects n (%)",[5],0
same,"Edema peripheral Grade 1, subjects n (%)",[5],7 (18%)
same,"Edema peripheral Grade 2, subjects n (%)",[5],1 (3%)
same,"Edema peripheral Grade 3, subjects n (%)",[5],0
same,"Edema peripheral Grade 4, subjects n (%)",[5],0
same,"Fatigue Grade 1, subjects n (%)",[5],2 (5%)
same,"Fatigue Grade 2, subjects n (%)",[5],3 (8%)
same,"Fatigue Grade 3, subjects n (%)",[5],1 (3%)
same,"Fatigue Grade 4, subjects n (%)",[5],0
same,"Headache Grade 1, subjects n (%)",[5],4 (10%)
same,"Headache Grade 2, subjects n (%)",[5],1 (3%)
same,"Headache Grade 3, subjects n (%)",[5],0
same,"Headache Grade 4, subjects n (%)",[5],0
same,"Nausea Grade 1, subjects n (%)",[5],20 (50%)
same,"Nausea Grade 2, subjects n (%)",[5],6 (15%)
same,"Nausea Grade 3, subjects n (%)",[5],2 (5%)
same,"Nausea Grade 4, subjects n (%)",[5],0
same,"Proteinuria Grade 1, subjects n (%)",[5],2 (5%)
same,"Proteinuria Grade 2, subjects n (%)",[5],3 (8%)
same,"Proteinuria Grade 3, subjects n (%)",[5],0
same,"Proteinuria Grade 4, subjects n (%)",[5],0
same,"Vomiting Grade 1, subjects n (%)",[5],20 (50%)
same,"Vomiting Grade 2, subjects n (%)",[5],7 (18%)
same,"Vomiting Grade 3, subjects n (%)",[5],1 (3%)
same,"Vomiting Grade 4, subjects n (%)",[5],0
same,"ALT increased Grade 2, subjects n (%)",[6],8 (20%)
same,"ALT increased Grade 3, subjects n (%)",[6],2 (5%)
same,"ALT increased Grade 4, subjects n (%)",[6],0
same,"AST increased Grade 2, subjects n (%)",[6],5 (13%)
same,"AST increased Grade 3, subjects n (%)",[6],1 (3%)
same,"AST increased Grade 4, subjects n (%)",[6],0
same,"Creatinine increased Grade 2, subjects n (%)",[6],11 (28%)
same,"Creatinine increased Grade 3, subjects n (%)",[6],0
same,"Creatinine increased Grade 4, subjects n (%)",[6],0
same,"Hyperamylasemia Grade 2, subjects n (%)",[6],0
same,"Hyperamylasemia Grade 3, subjects n (%)",[6],1 (3%)
same,"Hyperamylasemia Grade 4, subjects n (%)",[6],1 (3%)
same,"Hyperkalemia Grade 2, subjects n (%)",[6],3 (8%)
same,"Hyperkalemia Grade 3, subjects n (%)",[6],2 (5%)
